Test results as given in patent publication US7189750B2, “Thiazole-based nitric oxide donors having at least two thiazole moieties and uses thereof” (priority 2004, dated 2007).

How the values were obtained:
Assay type in all cases: cell-based
isolated rat aorta [1] = test: In vitro vasorelaxation of epinephrine-contracted rat aortic rings (CCRC); details: for vasorelaxation effect as compared with glyceryltrinitrate: isolated rat aorta, 1 μM epinephrine
Description: Male Sprague Dawley rats were anaesthetized using intraperitoneal injection of ketamine and xylazine (50 and 10 milligram per kilogram, respectively) and the thoracic aorta, the large upper portion of the descending aorta, starting at the caudal border of the chest bone, was removed thereafter, while carefully removing the paraadventetial tissue surrounding the vessel. Aortae were cut into rings of 4–5 millimeters and mounted onto the tissue path. The path buffer (Krebs-bicrbonate) was constantly gassed with carbogen and maintained at 37° C. The rings were preloaded under 2 g tension and equilibrated for 90 minutes, while refreshing the buffer every 15 minutes. After stabilization, the rings were contracted with epinephrine (1 μM). Cumulative Concentration-Response Curves (CCRC) were measured for the vasorelaxing effect induced by adding various concentrations, ranging from 10^−10 M to 10^−5 M of Pet-2, Pet-3, Pet-7, Pet-8, Pet-12, Pet-24, Pet-43, Pet-59, Pet-147, Pet-152 and Pet-154, and glyceryltrinitrate (GTN), according to the procedure described in Feelich et al., Molecular Pharmacology, 56:243–253 (1999). The vehicle, which was used for this experiment was water:ethanol:propyleneglycol at proportional ratio of 1:1:1.
The vasorelaxing effect of the thiazole-derived NO-donors according to the present invention was measured on slices of thoracic aorta of rats contracted with epinephrine, as described hereinabove.

isolated rat aorta [2] = test: In vitro induction of tolerance and cross-tolerance: vasorelaxation of pre-exposed rat aortic rings; details: for EC50: Rattus norvegicus; for tolerance induction in vitro: rings pre-treated with epinephrine and then with the same compound (0.44 mM)
Protocol: Aortic rings were prepared as described hereinabove, and were exposed to 0.44 mM GTN (vehicle was water:ethanol:propyleneglycol at proportional ratio of 1:1:1) for 1 hour before CCRC construction, to thereby induce tolerance to nitroglycerine. At the end of the tolerance induction period, rings were thrice washed with the path buffer (Krebs-bicrbonate) every 15 minutes for the following hour and then CCRC for vasorelaxation on GTN-induced tolerance rings were constructed for GTN (pretreated versus untreated rings, FIG. 15), in order to verify the ability to induce and measure GTN tolerance induction in vitro
Attempted induction of tolerance to the NO-donating compounds of the present invention was performed under the same conditions as for GTN. Thus, in an exemplary experiment, rings were exposed to 0.44 mM solution of Pet-3 in the attempt to induce tolerance for Pet-3. CCRC were then measured for the vasorelaxing effect of Pet-3 on a group of rings which were pre-exposed to Pet-3 as to induce tolerance to Pet-3, and for an untreated control group. The above protocol was repeated with Pet-2, Pet-7, Pet-8, Pet-12, Pet-24, Pet-43, Pet-149 and Pet-152.
Cross-tolerance studies were conducted using the same technique described above for measuring vasorelaxation of aortic rings from rats. Two groups of aortic rings samples were pre-treated with GTN, then one group was measured for vasorelaxation by GTN and the second group for vasorelaxation by Pet-12, an exemplary NO-donor according to the present invention. For the opposite cross-tolerance studies, two groups of aortic rings samples were pre-treated with Pet-12, then one group was measured for vasorelaxation by GTN and the second group for vasorelaxation by Pet-12.

[3] = test system: c-GMP in slices of thoracic aorta of rats; test: Cyclic-GMP measurement in aortic rat tissue (radioimmunoassay); details: for levels of cGMP as compared with GTN: isolated rat aorta; for cGMP Post-infusion / cGMP Pre-infusion: rat aorta; for cGMP Post-infusion: post-infusion (repeated treatment)
Protocol: GTN (10^−6 M) was added to the chamber and, 1 minute after exposure to the drug, rings (usually 3–5) were taken, wrapped with aluminum foil and immediately frozen in liquid nitrogen for storage. Control sample group was treated with the vehicle solution only. At the time of analysis, rings were thawed, blotted over a dry gauzed and weighted. A known weight of tissue was homogenized in 2 ml ice-cold modified Hank's balanced salt solution containing (in gram/liter) NaCl 8; KCl 0.4; glucose 1; KH2PO4 0.06; Na2HPO4 0.047; Phenol red 0.017 and further containing 25 mM EDTA (disodium salt). The homogenate was centrifuged at 4000 g (force units) for 10 minutes at 2–4° C. and the supernatant was thereafter transferred into fresh pre-cooled test tube containing 1 ml of acetonitrile. The tubes were vortex mixed for a few seconds and subsequently centrifuged at 4000 g for 5 minutes at 2–4° C., to remove the precipitated protein. Each supernatant was transferred into a clean test tube and evaporated to dryness under a stream of nitrogen at 55° C. The dry residue was reconstituted with 10 volumes of Tris-EDTA buffer pH 7.5 (0.05 M Tris containing 4 mM EDTA). Aliquots of 100 μl of the reconstituted solution in duplicate were used for c-GMP measurements using Amersham RIA kit, as is described in Haj-Yehia & Benet [Pharmacology, 1995, 273, 1, pp. 94–100]. Standard curves were plotted with six concentrations (0, 0.5, 1, 2, 4 and 8 pmoles of c-GMP per tube).
The NO-tolerance effect of GTN and NO-donor compounds according to the present invention was measured by following the production of c-GMP in slices of thoracic aorta of rats. Thus, the production of c-GMP was measured as described in the methods section above for the reference NO-donor compound GTN, and for the NO-donors of the present invention Pet-2, Pet-3, Pet-7, Pet-8, Pet-10, Pet-12, Pet-24, Pet-59, Pet-147, Pet-149, Pet-152, Pet-154 and Pet-155.

[4] = vasorelaxation, rat aortic rings contracted with 1 μM epinephrine, 10^−10 M to 10^−5 M, read-out: Concentration
[5] = vasorelaxation, rat aortic rings contracted with 1 μM epinephrine, given as negative log value, read-out: EC50 (converted)
[6] = vasorelaxation of rings pre-exposed to 0.44 mM of the same compound for 1 hour, given as negative log value, read-out: EC50 (converted)
[7] = vasorelaxation of rings pre-exposed to 0.44 mM of the same compound for 1 hour, read-out: Concentration
[8] = Rattus norvegicus, read-out: Concentration

| SMILES | EC50 (isolated rat aorta [1]; [4]) [nM] | EC50 (isolated rat aorta [1]; [5]) [nM] | EC50 (isolated rat aorta [2]; [6]) [nM] | EC50 (isolated rat aorta [2]; [7]) [nM] | levels of cGMP as compared with GTN [3] | vasorelaxation effect as compared with glyceryltrinitrate (isolated rat aorta [1]) | tolerance induction in vitro (isolated rat aorta [2]) | cGMP Post-infusion [3] [pmol/g tissue] | cGMP Pre-infusion [3] [pmol/g tissue] | EC50 (isolated rat aorta [1]; Rattus norvegicus) [nM] | EC50 (isolated rat aorta [1]; [8]) [nM] | EC50 (isolated rat aorta [2]; 1 h) [nM] | EC50 (isolated rat aorta [2]; 1 h, read-out: Concentration) [nM] |
| --- | --- | --- | --- | --- | --- | --- | --- | --- | --- | --- | --- | --- | --- |
| Cc1nc(NC(=O)c2cccnc2)sc1CCO[N+](=O)[O-] [Pet-154, N-[4-methyl-5-(2-nitrooxy-ethyl)-thiazol-2-yl]-nicotinamide] | 39.8 | 39.8 | 39.8 | 39.8 | increased |  |  |  |  |  |  |  |  |
| Cc1nc(Nc2cccc3ccccc23)sc1CCO[N+](=O)[O-] [Pet-149, [4-Methyl-5-(2-nitrooxy-ethyl)-thiazol-2-yl]-naphthalen-1-yl-amine] |  |  | 39.8 | 43.3 | increased | superior | absence of tolerance induction | 115 ± 14 | 112 ± 12 |  |  |  |  |
| Cc1nc(Nc2nc(C)c(CCO[N+](=O)[O-])s2)sc1CCO[N+](=O)[O-] [Pet-43, Bis-[4-methyl-5-(2-nitrooxy-ethyl)-thiazol-2-yl]-amine] |  |  |  |  |  | superior | absence of tolerance induction |  |  | 158 | 159 | 251 | 251 |
| CCNc1nc(C)c(CCO[N+](=O)[O-])s1 [Pet-147, Ethyl-[4-methyl-5-(2-nitrooxy-ethyl)-thiazol-2-yl]-amine] | 31.6 | 31.6 |  |  | increased |  |  |  |  |  |  |  |  |
| Cc1nc(N)sc1CCO[N+](=O)[O-] [Pet-10, 4-methyl-5-(2-nitrooxy-ethyl)-thiazole-2-ylamine] |  |  |  |  | increased |  |  |  |  |  |  |  |  |
| Cc1nc(-c2ccccc2)sc1CCO[N+](=O)[O-] [Pet-8, 4-Methyl-5-(2-nitrooxy-ethyl)-2-phenyl-thiazole] | 28.2 | 20 | 25.1 | 25.1 | increased | superior |  | 136 ± 12 | 133 ± 10 |  |  |  |  |
| Cc1nc(-c2ccc(C(F)(F)F)cc2)sc1CCO[N+](=O)[O-] [Pet-59, 4-Methyl-5-(2-nitrooxy-ethyl)-2-(4-trifluoromethyl-phenyl)-thiazole] | 79.4 | 79.4 |  |  | increased | superior |  |  |  |  |  |  |  |
| Cc1nc(NC(=O)[C@@H](C)c2ccc(CC(C)C)cc2)sc1CCO[N+](=O)[O-] (stereo in doubt) [Pet-152, 2-(4-Isobutyl-phenyl)-N-[4-methyl-5-(2-nitrooxy-ethyl)-thiazol-2-yl]-propionamide] | 50.1 | 50.1 | 50.1 | 50.1 | increased | superior |  |  |  |  |  |  |  |
| Cc1nc(C)c(CCO[N+](=O)[O-])s1 [Pet-3, 2,4-Dimethyl-5-(2-nitrooxy-ethyl)-thiazole] |  |  |  |  | increased | superior | absence of tolerance induction | 118 ± 10 | 122 ± 14 | 35.5 | 35.5 | 50.1 | 50.1 |
| C=CCNc1nc(C)c(CCO[N+](=O)[O-])s1 [Pet-155, allyl-[4-methyl-5-(2-nitrooxy-ethyl)-thiazol-2-yl]-amine] |  |  | 50.1 | 50.1 | increased | superior |  |  |  |  |  |  |  |
| CNc1cncc(-c2nc(C)c(CCO[N+](=O)[O-])s2)n1 [Pet-24, Methyl-{6-[4-methyl-5-(2-nitrooxy-ethyl)-thiazol-2-yl]-pyrazin-2-yl}-amine] | 200 | 200 | 251 | 251 | increased |  | absence of tolerance induction | 112 ± 10 | 115 ± 14 |  |  |  |  |
| Cc1nc(N(C)C)sc1CCO[N+](=O)[O-] [Pet-7, Dimethyl-[4-methyl-5-(2-nitrooxy-ethyl)-thiazol-2-yl]-amine] | 28.2 | 28.2 | 35.5 | 50.1 | increased | 10 fold | absence of tolerance induction | 123 ± 12 | 120 ± 12 |  |  |  |  |
